# Reference: article PMC7369900 (International Journal of Molecular Sciences, 2020)
# What was measured:
# LLC-PK1 = experiment: cells; type: cell-based, pig; details: LLC-PK1, 72 h, MTT
# Description: (§1) Among the conjugates, LVXC-S-S-CTP10-NH2 (5) was the least cytotoxic. […] In the case of HEK 293 and LLC-PK1 cells, the IC50 values of 5 were nearly four times higher. […] Additionally, we noted that the cancer cells Hep G2 were less sensitive to the action of the given compounds than the non-cancer cells (HEK 293 and LLC-PK1).
# (§2) Cytotoxicity was assessed against three mammalian cell lines: LLC-PK1, Hep G2, and HEK 293. Multiwell (96–well) plates were seeded at 7000 cells/well in Medium 199 supplemented with 7.5% FBS, MEM Eagle’s medium supplemented with 10% FBS, or DMEM medium supplemented with 10% FBS, respectively. All media were supplemented with L-glutamine and antibiotics (penicillin/streptomycin). Cells were allowed to attach overnight. Drugs were dissolved in cell culture medium and added to wells in 100-µL aliquots of 2× concentrated solutions, in triplicates. To control wells, 100 µL of the medium were added. Cells were incubated with the studied compounds for 72 h at 37 °C and 95%/5% or 90%/10% (HEK 293 cells) CO2 atmosphere. Then, 20-µL aliquots of MTT solution in PBS (4 mg/mL) were added to all wells and plates were incubated further for 3 h in 37 °C. Formazan crystals formed were dissolved in 100 µL of DMSO and the absorbance of the solutions was measured using a multiwell plate reader (Spark, Tecan, Männedorf, Switzerland) at λ = 540 nm. Cytotoxicity was determined compared to the drug-free control. All experiments were performed in triplicates.
# Hep G2 = experiment: cells; type: cell-based, human; details: Hep G2, 72 h, MTT
# Description: as §1, §2
# HEK 293 [1] = experiment: cells; type: cell-based, human; details: HEK 293, 72 h, MTT
# Description: as §1, §2
# HL-60 = experiment: ROS generation (CM-H2DCFDA, flow cytometry); type: cell-based, human; details: for ROS HL-60: positive cells in 24 h, class
# Description: (§3) In the positive controls treated with H2O2, the fraction of ROS-positive cells exceeded 75%. […] Strikingly, in HL-60, a biologically significant effect was observed almost immediately (after 15 min of incubation). The same was noted after 1 h in the HEK 293 cell line. […] Similarly, conjugates 4 and 5 generated ROS at the low level (less than 15% for HL-60 and less than 20% for HEK 293) (manuscript in preparation). […] For HL-60, the critical level of ROS was noted after 15 min of incubation.
# (§4) ROS generation activity was evaluated as described previously. Briefly, HEK 293 cells were seeded on 35-mm Petri dishes in the amount of 15,000 cells per plate for 24 h in DMEM medium. […] Positive controls contained 250 µM H2O2, while negative controls were without any additions. After 0.5, 2.5, 5.5, and 24 h of incubation at 37 °C, the CM-H2DCFDA molecular probe (Thermo Fischer Scientific, Waltham, USA) was added to the plates and incubation was continued for another 0.5 h. The HEK 293 cells were detached with 0.05% trypsin solution in PBS and HBSS (Hank’s Balanced Salt Solution) and suspended in fresh DMEM medium. All samples were additionally stained with 7-AAD (7-aminoactinomycin D, 0.8 µg/mL) and immediately analysed with a Guava easyCyte flow cytometer (Merc, Burlington, USA). The determinations were performed in triplicates.
# HEK 293 [2] = experiment: ROS generation (CM-H2DCFDA, flow cytometry); type: cell-based, human; details: for ROS HEK 293: positive cells in 24 h, class
# Description: as §3, §4
# [3] = test system: S. epidermidis ATCC 12228; experiment: microbe, parasite or virus in culture; type: cell-based, Staphylococcus epidermidis; details: S. epidermidis ATCC 12228, MHB
# Description: (§5) The antibacterial activity of TP10-NH2-based conjugates, as well as its constituents, was evaluated by microdilution assay in Mueller Hinton broth, MHB (Table 1). […] There are, however, some exceptions. […] Its activity against two other tested bacteria was somewhat lower though.
# (§6) The antibacterial activity (bacteriostatic: MIC and bactericidal: MBC) of the tested compounds was determined in MHB (Mueller Hinton Broth, Sigma Aldrich, St. Louis, MO, USA) using a serial two-fold dilution method in 96-well microtiter plates according to CLSI recommendations, described in M07-A10 document. The exact conditions have been described previously. All experiments were performed in three replicates. The MIC90 and MIC50 values were defined as the concentrations of compounds tested that caused a 90% or 50% reduction of growth, respectively, comparing to the drug-free control.
# S. aureus ATCC 29213 = experiment: microbe, parasite or virus in culture; type: cell-based, Staphylococcus aureus; details: S. aureus ATCC 29213, MHB
# Description: as §5, §6
# [4] = test system: Gram-positive and Gram-negative bacteria; type: cell-based; details: MHB, Gram-positive bacteria
# Description: as §5, §6
# [5] = biological target: T1, yeast DNA topoisomerase II (Saccharomyces cerevisiae, UniProt P06786); experiment: biochemical; type: biochemical; details: class; read-out: Topoisomerase II Inhibition
# T1 construct: purchased Inspiralis (Norwich, UK)
# T1 sequence (P06786 whole entry): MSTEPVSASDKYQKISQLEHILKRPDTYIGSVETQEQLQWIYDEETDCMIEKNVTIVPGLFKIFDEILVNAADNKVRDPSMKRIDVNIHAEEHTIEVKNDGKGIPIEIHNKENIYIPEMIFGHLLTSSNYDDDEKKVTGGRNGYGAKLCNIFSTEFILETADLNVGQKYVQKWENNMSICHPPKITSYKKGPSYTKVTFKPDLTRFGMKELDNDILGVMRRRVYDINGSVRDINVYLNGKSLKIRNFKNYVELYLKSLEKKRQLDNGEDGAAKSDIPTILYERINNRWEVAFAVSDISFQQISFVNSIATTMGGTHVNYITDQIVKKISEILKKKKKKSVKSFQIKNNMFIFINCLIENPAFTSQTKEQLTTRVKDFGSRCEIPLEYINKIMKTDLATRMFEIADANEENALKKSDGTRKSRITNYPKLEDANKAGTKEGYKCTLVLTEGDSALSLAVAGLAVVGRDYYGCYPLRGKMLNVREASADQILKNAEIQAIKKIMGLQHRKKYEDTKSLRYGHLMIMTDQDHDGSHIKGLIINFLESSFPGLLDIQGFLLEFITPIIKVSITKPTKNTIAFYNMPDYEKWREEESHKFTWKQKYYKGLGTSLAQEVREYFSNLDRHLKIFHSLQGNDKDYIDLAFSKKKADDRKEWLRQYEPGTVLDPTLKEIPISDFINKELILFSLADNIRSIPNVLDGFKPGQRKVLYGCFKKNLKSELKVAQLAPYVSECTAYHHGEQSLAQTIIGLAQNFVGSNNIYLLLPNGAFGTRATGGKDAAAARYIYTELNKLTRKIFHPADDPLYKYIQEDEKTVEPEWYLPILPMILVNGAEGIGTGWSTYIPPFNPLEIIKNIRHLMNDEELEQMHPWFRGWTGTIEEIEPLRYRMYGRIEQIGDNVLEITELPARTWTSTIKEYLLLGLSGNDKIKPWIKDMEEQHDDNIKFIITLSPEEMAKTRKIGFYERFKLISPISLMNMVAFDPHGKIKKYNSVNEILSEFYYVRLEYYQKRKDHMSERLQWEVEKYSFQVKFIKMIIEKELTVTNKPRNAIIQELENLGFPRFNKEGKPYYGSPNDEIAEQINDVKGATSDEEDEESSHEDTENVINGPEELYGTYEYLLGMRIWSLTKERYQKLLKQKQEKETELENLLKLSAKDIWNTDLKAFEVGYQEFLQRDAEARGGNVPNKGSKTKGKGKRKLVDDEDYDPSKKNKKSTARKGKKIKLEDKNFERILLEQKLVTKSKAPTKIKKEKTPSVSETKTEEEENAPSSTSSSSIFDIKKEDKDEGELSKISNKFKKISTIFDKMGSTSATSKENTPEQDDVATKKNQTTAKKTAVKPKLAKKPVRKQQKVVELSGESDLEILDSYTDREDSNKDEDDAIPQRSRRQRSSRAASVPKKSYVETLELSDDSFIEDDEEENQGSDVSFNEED
# P. aeruginosa ATCC 27853 = experiment: microbe, parasite or virus in culture; type: cell-based, Pseudomonas aeruginosa; details: P. aeruginosa ATCC 27853, MHB
# Description: as §5, §6
# E. coli ATCC 25922 = experiment: microbe, parasite or virus in culture; type: cell-based, Escherichia coli; details: E. coli ATCC 25922, MHB
# Description: as §5, §6
# [6] = test system: C. albicans Δopt1Δopt5Δptr2Δptr22
# human red blood cells = experiment: Hemolysis assay; details: 1 h, 37 °C
Structure (SMILES),IC50 (LLC-PK1),IC50 (Hep G2),IC50 (HEK 293 [1]),MIC50 (C. krusei DSM 6128),ROS level (positive cells) (HL-60; HL-60),ROS HL-60 (HL-60),ROS HEK 293 (HEK 293 [2]),MIC50 (C. albicans SC 5314),MIC50 [3],MIC90 [3],MIC50 (S. aureus ATCC 29213),MIC90 (S. aureus ATCC 29213),MIC50 (P. aeruginosa ATCC 27853),MIC90 (P. aeruginosa ATCC 27853),MIC50 (E. coli ATCC 25922),MIC90 (E. coli ATCC 25922),MIC50 (C. albicans Gu4),MIC50 [6],MIC90 [6],MIC50 (C. glabrata DSM 11226),also measured
CC[C@H](C)[C@H](NC(=O)[C@H](CCCCN)NC(=O)[C@H](CCCCN)NC(=O)[C@H](C)NC(=O)[C@H](CC(C)C)NC(=O)[C@H](C)NC(=O)[C@H](C)NC(=O)[C@H](CC(C)C)NC(=O)[C@H](C)NC(=O)[C@H](CCCCN)NC(=O)[C@H](CC(C)C)NC(=O)[C@H](CC(N)=O)NC(=O)[C@@H](NC(=O)[C@H](CCCCN)NC(=O)CNC(=O)[C@H](CC(C)C)NC(=O)[C@H](CC(C)C)NC(=O)[C@H](Cc1ccc(O)cc1)NC(=O)CNC(=O)[C@H](C)NC(=O)[C@@H](N)CS)[C@@H](C)CC)C(=O)N[C@@H](CC(C)C)C(N)=O [CTP10-NH2],51.6 ± 8.66 µM,60 ± 5.75 µM,19.5 ± 2.93 µM,–,–,–,–,–,–,–,–,–,–,–,–,–,–,–,–,–,–
"CC[C@H](C)[C@H](NC(=O)[C@H](CCCCN)NC(=O)[C@H](CCCCN)NC(=O)[C@H](C)NC(=O)[C@H](CC(C)C)NC(=O)[C@H](C)NC(=O)[C@H](C)NC(=O)[C@H](CC(C)C)NC(=O)[C@H](C)NC(=O)[C@H](CCCCN)NC(=O)[C@H](CC(C)C)NC(=O)[C@H](CC(N)=O)NC(=O)[C@@H](NC(=O)[C@H](CCCCN)NC(=O)CNC(=O)[C@H](CC(C)C)NC(=O)[C@H](CC(C)C)NC(=O)[C@H](Cc1ccc(O)cc1)NC(=O)CNC(=O)[C@H](C)NC(=O)c1cn2c3c(c(N4CCN(C)CC4)c(F)cc3c1=O)OC[C@@H]2C)[C@@H](C)CC)C(=O)N[C@@H](CC(C)C)C(N)=O [Compound 4, LVX-TP10-NH2]",52.9 ± 8.15 µM,72.6 ± 13 µM,22.5 ± 9.7 µM,100 µM,less than 15%,+ (+ <15% positive cells in 24 h),++ (++ <10% positive cells in 24 h),50 µM,1.6 µM,1.6 µM,1.6 µM,1.6 µM,100 µM,100 µM,50 µM,50 µM,25 µM,100 µM,100 µM,>200 µM,ROS level (positive cells) (HEK 293 [2]; HEK 293): less than 20%; MIC90 (C. albicans SC 5314): 100 µM; MIC90 against Gram-positive bacteria [4]: 1.6 µM; IC50 [5]: < 10 µM
"CC[C@H](C)[C@H](NC(=O)[C@H](CCCCN)NC(=O)[C@H](CCCCN)NC(=O)[C@H](C)NC(=O)[C@H](CC(C)C)NC(=O)[C@H](C)NC(=O)[C@H](C)NC(=O)[C@H](CC(C)C)NC(=O)[C@H](C)NC(=O)[C@H](CCCCN)NC(=O)[C@H](CC(C)C)NC(=O)[C@H](CC(N)=O)NC(=O)[C@@H](NC(=O)[C@H](CCCCN)NC(=O)CNC(=O)[C@H](CC(C)C)NC(=O)[C@H](CC(C)C)NC(=O)[C@H](Cc1ccc(O)cc1)NC(=O)CNC(=O)[C@H](C)NC(=O)[C@@H](N)CSSC[C@H](NC(=O)c1cn2c3c(c(N4CCN(C)CC4)c(F)cc3c1=O)OC[C@@H]2C)C(=O)O)[C@@H](C)CC)C(=O)N[C@@H](CC(C)C)C(N)=O [Compound 5, LVXC-S-S-CTP10-NH2]",105 ± 15.6 µM,102 ± 4.9 µM,41.3 ± 1.1 µM,50 µM,less than 15%,++ (++ <10% positive cells in 24 h),++ (++ <10% positive cells in 24 h),12.5 µM,3.125 µM,3.125 µM,6.25 µM,6.25 µM,12.5 µM,25 µM,3.125 µM,3.125 µM,12.5 µM,12.5 µM,25 µM,>200 µM,ROS level (positive cells) (HEK 293 [2]; HEK 293): less than 20%; MIC90 (C. albicans SC 5314): 25 µM; IC50 [5]: < 50 µM; MHC50 (concentration causing 50% hemolysis) (human red blood cells): 140 µg/mL; MHC50 (concentration causing 50% hemolysis) (human red blood cells; converted from μg/mL): ~ 51 μM
"CC[C@H](C)[C@H](NC(=O)[C@H](CCCCN)NC(=O)[C@H](CCCCN)NC(=O)[C@H](C)NC(=O)[C@H](CC(C)C)NC(=O)[C@H](C)NC(=O)[C@H](C)NC(=O)[C@H](CC(C)C)NC(=O)[C@H](C)NC(=O)[C@H](CCCCN)NC(=O)[C@H](CC(C)C)NC(=O)[C@H](CC(N)=O)NC(=O)[C@@H](NC(=O)[C@H](CCCCN)NC(=O)CNC(=O)[C@H](CC(C)C)NC(=O)[C@H](CC(C)C)NC(=O)[C@H](Cc1ccc(O)cc1)NC(=O)CNC(=O)[C@H](C)NC(=O)[C@@H](N)CSSC[C@H](N)C(=O)N1CCN(c2cc3c(cc2F)c(=O)c(C(=O)O)cn3C2CC2)CC1)[C@@H](C)CC)C(=O)N[C@@H](CC(C)C)C(N)=O [Compound 6, CIPC-S-S-CTP10-NH2]",21.3 ± 1.33 µM,37.7 ± 2.84 µM,20.8 ± 10.9 µM,>200 µM,–,–,++ (++ <10% positive cells in 24 h),50 µM,6.25 µM,6.25 µM,3.125 µM,3.125 µM,>100 µM,>100 µM,6.25 µM,6.25 µM,25 µM,50 µM,50 µM,>200 µM,Incubation time at which significant/critical ROS level was noted (HL-60; HL-60): 15 min; ROS induction (HEK 293 [2]; HEK 293): did not induce a significant level of ROS
